# According to patent EP2022493A1, “Composition comprising at least one optically active phthalamide derivative for controlling animal parasites” (Bayer CropScience AG, priority 2007, dated 2009):
# Key:
# [1] = tested on: Lucilia cuprina larvae; assay: Lucilia cuprina - test (larvae); assay type: in vivo; conditions: in Ovis aries, read-out: activity (mortality in %)
# Description: (§1) Solvent: dimethyl sulfoxide
# (§2) To produce a suitable preparation of active compound, 10 mg of active compound are dissolved in 0.5 ml solvent, and the concentrate is diluted with water to the desired concentration.
# Approximately 20 -30 (Lucilia cuprina larvae) are transferred into a test tube containing 1cm^3 of minced horse meat and 0.5 ml aqueous dilution of test compound.
# After the specified period of time, mortality in % is determined. 100 % means that all the larvae have been killed; 0 % means that none of the larvae have been killed.
# [2] = tested on: Musca domestica; assay: Musca domestica - test; assay type: in vivo; conditions: application rate of 100ppm, adults
# Description: as §1, §2
# Prior to the assay, a piece or kitchen sponge is soaked with a mixture of sugar and compound solution and placed into a container. 10 adults (Musca domestica) are placed into the container and closed with a perforated lid.
# After the specified period of time, mortality in % is determined. 100 % means that all the flies have been killed; 0 % means that none of the flies have been killed.
# [3] = tested on: Boophilus microplus; assay: Boophilus microplus - test (injection into adult ticks); assay type: in vivo; conditions: application rate of 20 µg/animal; injected into the abdomen of adult ticks; seven days
# Description: Boophilus microplus - test Solvent: dimethylsulfoxide To produce a suitable preparation of active compound, 1 part by weight of active compound is mixed with the stated amount of solvent, and the concentrate is diluted with containing solvent to the desired concentration. Adult ticks (Boophilus microplus) are treated by injected with compound solution of the desired concentration into the abdomen. Ticks are transferred into replica plates and incubated in a climate chamber for seven days. Eggs which are not clearly fertile or infertile are further incubated for another 35 days until larvae hatch from the untreated controls. After the specified period of time, the laying of fertile eggs in % is determined. 100 % means that all eggs have been fertile; 0 % means that none of the eggs have been fertile.
# [4] = Determination of the logP values by HPLC on reversed-phase column (C 18); assay type: physicochemical
# Description: Determination of the logP values:
# The lambda max values were determined in the maxima of the chromatographic signals using the UV spectra from 190 nm to 400 nm.
# [5] = 0.1% aqueous phosphoric acid/acetonitrile, method [a]: 0.1% aqueous phosphoric acid and acetonitrile at pH 2.3, linear gradient from 10 to 95 % (v/v) acetonitrile, HPLC reversed-phase C 18, 40 °C
# [6] = 0.001 m aqueous nh4hco3/acetonitrile, method [c]: 0.001 molar aqueous NH4HCO3 solution and acetonitrile at pH 7.8, linear gradient from 10 % to 95 % acetonitrile (v/v), HPLC reversed-phase C 18, 40 °C
# [7] = 0.001 m aqueous nh4hco3/acetonitrile, HPLC, reversed-phase C 18, 40 °C, [c] 0.001 molar aqueous NH4HCO3 solution and acetonitrile at pH 7.8, linear gradient from 10 % to 95 % acetonitrile (v/v)
# [8] = 0.1% aqueous phosphoric acid/acetonitrile, HPLC, reversed-phase C 18, 40 °C, [a] 0.1% aqueous phosphoric acid and acetonitrile at pH 2.3, linear gradient from 10 to 95 % (v/v) acetonitrile
SMILES,mortality at 100 ppm [1],mortality at 100 ppm [2],activity (laying of fertile eggs in %) [3],"chromatographic logP [4, 5]","chromatographic logP [4, 6]","chromatographic logP [4, 7]","chromatographic logP [4, 8]","chromatographic logP ([4]; 0.1% aqueous formic acid/acetonitrile, HPLC, reversed-phase C 18, 40 °C, [b] 0.1% aqueous formic acid and acetonitrile at pH 2.7, linear gradient from 10 % to 95 % (v/v) acetonitrile)"
CCS(=O)(=O)C[C@H](C)NC(=O)c1c(I)cccc1C(=O)Nc1ccc(C(C(F)(F)F)C(F)(F)F)cc1C [Compound 23],≥ 80%,≥ 80%,–,–,–,–,–,–
CSC[C@H](C)NC(=O)c1c(I)cccc1C(=O)Nc1ccc(C(C(F)(F)F)C(F)(F)F)cc1C [Compound 24],≥ 80%,≥ 80%,≥ 80%,–,–,–,–,–
Cc1cc(C(C(F)(F)F)C(F)(F)F)ccc1NC(=O)c1cccc(I)c1C(=O)N[C@@H](C)CS(C)(=O)=O [Compound 48],≥ 80%,≥ 80%,≥ 80%,–,–,–,–,–
Cc1cc(C(C(F)(F)F)C(F)(F)F)ccc1NC(=O)c1cccc(I)c1C(=O)N[C@@H](C)C[S+](C)[O-] (stereo partly shown) [Compound 56],≥ 80%,≥ 80%,≥ 80%,–,–,–,–,–
Cc1cc(C(F)(C(F)(F)F)C(F)(F)F)ccc1NC(=O)c1cccc(Cl)c1C(=O)N[C@@H](C)CS(C)(=O)=O [Compound 80],≥ 80%,≥ 80%,≥ 80%,–,–,–,–,–
CCSC[C@H](C)NC(=O)c1c(I)cccc1C(=O)Nc1ccc(C(F)(C(F)(F)F)C(F)(F)F)c(F)c1C [Compound 105],≥ 80%,–,≥ 80%,4.71,–,–,–,–
Cc1cc(C(F)(C(F)(F)F)C(F)(F)F)ccc1NC(=O)c1cccc(Br)c1C(=O)N[C@@H](C)CS(C)(=O)=O [Compound 129],≥ 80%,–,≥ 80%,–,–,–,–,–
CCS(=O)(=O)C[C@H](C)NC(=O)c1c(I)cccc1C(=O)Nc1ccc(C(F)(C(F)(F)F)C(F)(F)F)c(F)c1C [Compound 130],≥ 80%,≥ 80%,–,3.47,–,–,–,–
CCS(=O)(=O)C[C@H](C)NC(=O)c1c(Br)cccc1C(=O)Nc1ccc(C(F)(F)C(F)(F)F)c(Cl)c1C [Compound 138],≥ 80%,–,≥ 80%,3.19,–,–,–,–
CCS(=O)(=O)C[C@H](C)NC(=O)c1c(I)cccc1C(=O)Nc1ccc(C(F)(F)C(F)(F)F)c(Cl)c1C [Compound 145],≥ 80%,–,–,–,–,–,–,–
CSC[C@H](C)NC(=O)c1c(I)cccc1C(=O)Nc1ccc(C(F)(F)C(F)(F)F)c(F)c1C [Compound 146],≥ 80%,–,≥ 80%,4.04,–,–,–,–
CCSC[C@H](C)NC(=O)c1c(I)cccc1C(=O)Nc1ccc(C(F)(C(F)(F)F)C(F)(F)Br)cc1C (stereo partly shown) [Compound 154],≥ 80%,–,≥ 80%,4.68,4.71,–,–,–
Cc1c(NC(=O)c2cccc(I)c2C(=O)N[C@@H](C)CS(C)(=O)=O)ccc(C(F)(F)C(F)(F)F)c1F [Compound 162],≥ 80%,≥ 80%,–,2.97,–,–,–,–
CSC[C@H](C)NC(=O)c1c(I)cccc1C(=O)Nc1ccc(C(F)(F)C(F)(F)F)c(Cl)c1C [Compound 170],≥ 80%,–,≥ 80%,4.2,–,–,–,–
Cc1c(NC(=O)c2cccc(I)c2C(=O)N[C@@H](C)CS(C)(=O)=O)ccc(C(F)(C(F)(F)F)C(F)(F)F)c1F [Compound 178],≥ 80%,≥ 80%,–,3.27,–,–,–,–
Cc1c(NC(=O)c2cccc(I)c2C(=O)N[C@@H](C)CS(C)(=O)=O)ccc(C(F)(F)C(F)(F)F)c1Cl [Compound 186],≥ 80%,–,–,–,–,–,–,–

SMILES,mortality at 100 ppm [1],mortality at 100 ppm [2],activity (laying of fertile eggs in %) [3],"chromatographic logP [4, 5]","chromatographic logP [4, 6]","chromatographic logP [4, 7]","chromatographic logP [4, 8]","chromatographic logP ([4]; 0.1% aqueous formic acid/acetonitrile, HPLC, reversed-phase C 18, 40 °C, [b] 0.1% aqueous formic acid and acetonitrile at pH 2.7, linear gradient from 10 % to 95 % (v/v) acetonitrile)"
CCS(=O)(=O)C[C@H](C)NC(=O)c1c(I)cccc1C(=O)Nc1ccc(C(F)(C(F)(F)F)C(F)(F)Br)cc1C (stereo partly shown) [Compound 194],–,–,–,–,–,3.47,3.49,–
CCSC[C@H](C)NC(=O)c1c(I)cccc1C(=O)Nc1ccc(C(C(F)F)C(F)(F)F)cc1F (stereo partly shown) [Compound 219],–,≥ 80%,≥ 80%,–,–,3.57,3.57,–
C[C@@H](CS(C)(=O)=O)NC(=O)c1c(I)cccc1C(=O)Nc1ccc(C(C(F)F)C(F)(F)F)cc1Cl (stereo partly shown) [Compound 259],≥ 80%,≥ 80%,–,–,–,2.72,2.69,–
CSC[C@H](C)NC(=O)c1c(Br)cccc1C(=O)Nc1ccc(C(F)(C(F)F)C(F)(F)F)cc1Br (stereo partly shown) [Compound 267],≥ 80%,–,≥ 80%,–,–,–,3.81,–
C[C@@H](CS(C)(=O)=O)NC(=O)c1c(I)cccc1C(=O)Nc1ccc(C(C(F)F)C(F)(F)F)cc1Br (stereo partly shown) [Compound 275],≥ 80%,≥ 80%,–,–,–,2.76,2.71,–
C[C@@H](CS(C)(=O)=O)NC(=O)c1c(I)cccc1C(=O)Nc1ccc(C(F)(C(F)F)C(F)(F)F)cc1F (stereo partly shown) [Compound 283],≥ 80%,≥ 80%,–,–,–,2.76,2.72,–
CCS(=O)(=O)C[C@H](C)NC(=O)c1c(I)cccc1C(=O)Nc1ccc(C(F)(C(F)F)C(F)(F)F)cc1F (stereo partly shown) [Compound 307],≥ 80%,≥ 80%,–,–,–,2.94,2.89,–
Cc1c(NC(=O)c2cccc(I)c2C(=O)N[C@@H](C)C[S+](C)[O-])ccc(C(F)(C(F)(F)F)C(F)(F)F)c1F (stereo partly shown) [Compound 331],≥ 80%,–,≥ 80%,–,–,–,2.78,–
CC[S+]([O-])C[C@H](C)NC(=O)c1c(I)cccc1C(=O)Nc1ccc(C(F)(C(F)(F)F)C(F)(F)F)c(F)c1C (stereo partly shown) [Compound 339],≥ 80%,–,≥ 80%,–,–,–,2.97,–
CCS(=O)(=O)C[C@H](C)NC(=O)c1c(Cl)cccc1C(=O)Nc1ccc(C(F)(F)C(F)(F)F)c(Cl)c1C [Compound 347],≥ 80%,–,≥ 80%,–,–,–,3.14,–
CSC[C@H](C)NC(=O)c1c(Cl)cccc1C(=O)Nc1ccc(C(F)(F)C(F)(F)F)c(F)c1C [Compound 355],≥ 80%,–,≥ 80%,–,–,–,–,3.94
CCSC[C@H](C)NC(=O)c1c(Cl)cccc1C(=O)Nc1ccc(C(F)(F)C(F)(F)F)c(F)c1C [Compound 380],–,–,–,4.21,–,–,–,–
CSC[C@H](C)NC(=O)c1c(Br)cccc1C(=O)Nc1ccc(C(F)(F)C(F)(F)F)c(F)c1C [Compound 388],≥ 80%,–,≥ 80%,3.93,–,–,–,–
Cc1c(NC(=O)c2cccc(Br)c2C(=O)N[C@@H](C)CS(C)(=O)=O)ccc(C(F)(F)C(F)(F)F)c1F [Compound 389],≥ 80%,–,≥ 80%,2.86,–,–,–,–
CSC[C@H](C)NC(=O)c1c(Cl)cccc1C(=O)Nc1ccc(C(F)(C(F)(F)F)C(F)(F)F)cc1C [Compound 390],≥ 80%,≥ 80%,≥ 80%,–,–,–,–,–
Cc1cc(C(C(F)(F)F)C(F)(F)F)c(F)cc1NC(=O)c1cccc(Br)c1C(=O)N[C@@H](C)C[S+](C)[O-] (stereo partly shown) [Compound 422],≥ 80%,–,≥ 80%,2.58,2.51,–,–,–
